The record followed here is patent US10508124B2, “Xanthene protective agent” (priority 2016, dated 2019).

A short description of the data set: physchem. The format is physicochemical. As for the experimental part: Peptide used as a model: H-Phe-Leu-NH2
H-Phe-Leu-NH2 and H-Phe-Leu-NH-(TIPS2-Xtn) were synthesized, and each compound was saturated in cyclopentyl methyl ether (CPME) at 25° C. to measure the solubility of each compound.
In regard to H-Phe-Leu-NH2 not bound to a TIPS type protective agent, 0.5 mM of the peptide dissolved in CPME. […] Herein, H-Phe-Leu-NH2 and H-Phe-Leu-NH-(TIPS2-Xtn) have the following structures.

Converted amounts (≈) assume the structure as drawn. Where a SMILES comes first, the peptide text is derived from it.

The solubility is the dissolved amount per volume that the medium holds. For the compound `CC(C)C[C@H](NC(=O)[C@@H](N)Cc1ccccc1)C(=O)NC1c2ccc(OCCCCCCCCCCCO[Si](C(C)C)(C(C)C)C(C)C)cc2Oc2cc(OCCCCCCCCCCCO[Si](C(C)C)(C(C)C)C(C)C)ccc21` [H-Phe-Leu-NH-(TIPS2-Xtn)], the solubility turned out to be 586 mM (≈ 670 mg/mL) and the “solubility in CPME relative to unprotected H-Phe-Leu-NH2” value is on record as ≥ 1100 times.

For `CC(C)C[C@H](NC(=O)[C@@H](N)Cc1ccccc1)C(N)=O` [H-Phe-Leu-NH2, reference compound] (H-Phe-Leu-NH2), the solubility was 0.5 mM (≈ 0.139 mg/mL).
